Results published in patent publication US8354534B2, “Selective opioid compounds” (Alkermes, Inc., priority 2008, dated 2013).

Test system: morphine inhibition of prostaglandin E2 (PGE2) induced diarrhea
Assay: Antagonism of morphine-inhibited diarrhea in mice
Format: in vivo, mice (Swiss-Webster)
Conditions: morphine 1 mg/kg s.c., PGE2 320 μg/kg at 30 min, watery stools observed, result shown only in figure
Experimental: Albino mice of either sex (Swiss-Webster) weighing 20-30 g were used to determine the ability of an opioid antagonist to antagonize morphine inhibition of prostaglandin E2 (PGE2) induced diarrhea according to the method of Dajani et al. (1979). Briefly, mice are treated at time 0 with morphine, 1 mg/kg s.c. and an opioid antagonist, 60, 180, 240, 300, 360, 480, or 720 mg/kg orally; or 3, 10, 30, 100 or 140 mg/kg i.p; or saline, 0.1 ml/10 gm body weight orally or i.p. Mice are then treated at 30 min with PGE2, 320 μg/kg which consistently produced watery stools in the absence of morphine. […] Eleven to 24 mice were used per dose of an opioid antagonist for the oral and 6 are used for the i.p. routes. Data was analyzed using Fisher's exact probability test (Siegel, 1956). These studies were repeated using naltrexone, 0.005, 0.01, 0.05, 0.1, and 5 mg/kg i.p. and 0.5, 1, 2, and 4 mg/kg orally.

SMILES | Inhibition of morphine blockade of PGE2-induced diarrhea
NC(=O)c1ccc2c(c1O)[C@]13CCN(CC4CC4)[C@H](C2)[C@]1(O)CC[C@@H](NC(=O)[C@@H](N)CC(=O)O)C3 [Compound 12] | Inhibition of morphine blockade of PGE2-induced diarrhea
NC(=O)c1ccc2c(c1O)[C@]13CCN(CC4CC4)[C@H](C2)[C@]1(O)CC[C@@H](NC(CC(=O)O)C(=O)O)C3 (some centres unmarked) [Compound 13] | Inhibition of morphine blockade of PGE2-induced diarrhea
